The values that follow come from US20050049278A1, “Benzo[1,3]dioxole compounds, pharmaceutical compositions thereof, and processes of making and using the same” (priority 2003, published 2005).

For assay [1], the system named is HEK293 cells. Put plainly: Cell cycle analysis by FACS of HEK293 cells. Format: cell-based. The conditions noted are these: for Percent of Cells in G1 / Percent of Cells in G2/M / Percent of Cells in S: treated 16 to 24 hrs; for FACS profile / cell cycle effect: HEK293, FACS; for accumulation of cells in G2/M: HEK293, concentrations as in Table 1. On the procedure: Fluorescence-activated cell sorting (FACS) analysis was used to examine the cell cycle state when the cells were incubated with compounds of formula (I) as well as several control compounds, including DMSO, noscapine (a known G2/M inhibitor), and colchicine (a known G2/M inhibitor).
In particular, HEK293 cells were cultured in DMEM media (Celigro) supplemented with 10% Fetal Bovine Serum (Tissue Culture Biologicals) and 1× Penicillin/Streptomycin/Glutamine (Gibco). The cells were grown at 37° C. with 5% CO2, plated in six-well plates at 2.5×10^6 cells/well, and treated for 16 to 24 hrs with the compounds at the concentrations shown in Table 1, below. The cells were then triturated off the bottom of the wells, washed 1× with PBS, then fixed with 70% ethanol, and stored at 4° C. before staining and FACS analysis.
The DNA content of cells was determined using a FacsVantage SE flow cytometry system (Becton Dickinson, San Jose, Calif.) and a Cellular DNA Flow Cytometric Analysis Kit (Roche Applied Science, Indianapolis, Ind.). Cell cycle analysis was performed using Cylchred 1.0.2 software.

For assay [2], the system named is phytohemagglutinin (PHA)-stimulated peripheral blood lymphocytes (PBLs). Kind of assay: Cell cycle analysis on phytohemagglutinin-stimulated peripheral blood lymphocytes. Type of assay: cell-based. The conditions noted are these: PHA-stim. PBL (1 μg/ml PHA), 25 μM, 16 to 24 hrs. On the procedure: (§1) The effects of compounds 5a,b on the cell cycle were further examined on phytohemagglutinin (PHA)-stimulated and non-stimulated peripheral blood lymphocytes (PBLs).
(§2) PBLs were cultured in DMEM media (Celigro) supplemented with 10% Fetal Bovine Serum (Tissue Culture Biologicals) and 1× Penicillin/Streptomycin/Glutamine (Gibco). The cells were grown at 37° C. with 5% CO2, plated in six-well plates at 2.5-5×10^6 cells/well, and treated for 16 to 24 hrs with the compounds at the concentrations shown in Table 2, below, with or without 1 μg/ml PHA (Sigma). The cells were then triturated off the bottom of the wells, washed 1× with PBS, then fixed with 70% ethanol, and stored at 4° C. before staining and FACS analysis.

Assay [3] concerns HEK293 cells. Put plainly: HEK293 cell viability, CellTiter 96 Aqueous One Solution Cell Proliferation assay. The conditions noted are these: Homo sapiens, HEK293, 48 h. Type of assay: cell-based. As for the experimental part: The effect of various doses of compounds 5a, 5a,b, and 9a on the viability of HEK293 cells was examined using the CellTiter 96 Aqueous One Solution Cell Proliferation assay (Promega). The HEK293 cells were cultured in DMEM media (Cellgro) or phenol red-free DMEM (Gibco) supplemented with 10% Fetal Bovine Serum (Tissue Culture Biologicals) and 1× Penicillin/Streptomycin/Glutamine (Gibco). The cells were grown at 37° C. with 5% CO2. HEK293 cells were seeded into each well of a 96-well plate (5000 cells/well) and incubated overnight to allow the cells to attach. The culture media was removed and replaced with 100 μl of phenol red-free media containing the compounds 5a, 5a,b, and 9a at various concentrations. The cells were allowed to grow in the presence of the compounds for 48 hrs. At the end of the treatment, 20 μl of CellTiter 96 Aqueous One Solution reagent was added directly into each well, and the cells were incubated at 37° C. for 2 hrs. This reagent converts to a form that absorbs light at 490 nm by living cells. Thus, absorbance at 490 nm is proportional to the number of viable cells. The 490 nm absorbance was measured on a BioRad plate reader. Control wells containing no cells were included in this assay to correct for background absorbance.

In assay [4] the test system is non-stimulated peripheral blood lymphocytes (PBLs). Kind of assay: Cell cycle analysis on non-stimulated peripheral blood lymphocytes. As to conditions: PBL (non-stimulated), 25 μM, 16 to 24 hrs. Type of assay: cell-based. On the procedure: as §1, §2
Assay [5] has as its system HTS-tubulin (90% tubulin plus 10% microtubule associated proteins). Put plainly: Microtubule polymerization assay (turbidity at 340 nm). Type of assay: biochemical. As to conditions: absorbance at 340 nm, 30 minutes, 37° C., FIG. 3. On the procedure: Microtubule polymerization assays were performed to determine if compounds, such as compound 9a, cause G2/M cell cycle arrest by affecting microtubule dynamics. A microtubule polymerization assay was performed that takes advantage of the observation that there is an increase in turbidity that can be measured at 340 nm as tubulin heterodimers polymerize to form microtubules. In brief, HTS-tubulin (90% tubulin plus 10% microtubule associated proteins; Cytoskeleton Inc., Denver, Colo.) was resuspended in G-PEM buffer (80 mM Pipes, pH 6.9; 2 mM MgCl2; 0.5 mM EDTA; 1 mM GTP) to 10 mg/ml. This suspension was clarified by centrifugation for 10 min. at 225,000×g. The supernatant was then diluted with G-PEM buffer to 2 mg/ml and 100 μl of this solution was added to the appropriate number of ½-area wells in a 96-well format (Corning). Each compound (10 μl of a 10× final concentration in 10% DMSO) was added to the wells in duplicate and immediately put into a pre-warmed (37° C.) Spectromax 190 plate reader. The absorbance was read at 340 nm immediately (time=0) and every minute thereafter for 30 minutes.
The tubulin mix was incubated in the presence of paclitaxel (a microtubule stabilizing agent), nocodazole (a microtubule destabilizing agent), vehicle control (DMSO), or varying concentrations of compound 9a (FIG. 3).

In assay [6] the target is T1, topoisomerase I (Homo sapiens, UniProt P11387).
T1 construct: purchased Sigma-Aldrich
T1 sequence (P11387 1-765): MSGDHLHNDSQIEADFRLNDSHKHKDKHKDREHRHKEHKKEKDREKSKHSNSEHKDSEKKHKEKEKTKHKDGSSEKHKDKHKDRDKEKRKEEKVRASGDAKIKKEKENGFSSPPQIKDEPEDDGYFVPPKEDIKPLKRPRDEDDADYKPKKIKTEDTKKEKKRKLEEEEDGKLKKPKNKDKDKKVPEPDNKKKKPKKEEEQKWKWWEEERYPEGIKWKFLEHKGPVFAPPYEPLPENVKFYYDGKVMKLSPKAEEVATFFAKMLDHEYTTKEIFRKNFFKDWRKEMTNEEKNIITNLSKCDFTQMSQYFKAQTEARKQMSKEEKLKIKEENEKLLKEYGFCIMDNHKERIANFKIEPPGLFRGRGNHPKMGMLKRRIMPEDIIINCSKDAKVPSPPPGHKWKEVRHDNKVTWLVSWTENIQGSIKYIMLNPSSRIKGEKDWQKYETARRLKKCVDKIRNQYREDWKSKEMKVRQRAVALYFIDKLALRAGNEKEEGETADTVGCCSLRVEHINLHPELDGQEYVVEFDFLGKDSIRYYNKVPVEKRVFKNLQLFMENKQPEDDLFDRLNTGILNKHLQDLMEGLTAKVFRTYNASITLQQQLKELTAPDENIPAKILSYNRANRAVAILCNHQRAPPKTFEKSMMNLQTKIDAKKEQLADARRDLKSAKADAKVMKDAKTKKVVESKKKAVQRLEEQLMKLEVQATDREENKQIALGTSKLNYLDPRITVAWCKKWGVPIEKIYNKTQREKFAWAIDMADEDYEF
Put plainly: Topoisomerase I assay (supercoiled pBluescript DNA, agarose gel). Format: biochemical. As to conditions: in vitro, FIG. 2. On the procedure:
The ability of compounds that cause S-phase cell cycle arrest to inhibit topoisomerase I and topoisomerase II was examined. Analysis of topoisomerase activity was performed in 20 μl reactions with either topoisomerase I reaction buffer (10 mM TRIS-HCl, pH 7.5; 100 mM NaCl; 1 mM 2-mercaptoethanol) or topoisomerase II reaction buffer (50 mM Tris-HCl, pH 8; 120 mM KCl; 10 mM MgCl2; 0.5 mM dithiothreitol; 0.5 mM ATP; 30 μg BSA/ml) containing 125 ng supercoiled pBluescript DNA and either 2 U topoisomerase I (Sigma-Aldrich) or topoisomerase II (Topogen Inc.). After reaction at 37° C. for 20 minutes, the reactions were terminated through the addition of sodium dodecyl sulfate to 1% w/v and heating to 65° C. for 10 minutes. Proteinase K was then added to 10 μg/ml and digestion was allowed to proceed at 37° C. for 20 minutes before electrophoresis of the DNA in 0.8% agarose gels containing 0.5 μg/ml ethidium bromide for 18 hours at 75V in 0.5×TBE buffer. DNA was then visualized using a UV-transilluminator and the image was captured using a BioRad CCD camera and gel documentation system.

Molecules are shown by their SMILES. Read-outs that look alike come from different tables or passages of the source. Where only a bound is given, the exact number is not on record here.

`COc1ccc2c(c1OCc1ccccc1)C(=O)OC2[C@H]1c2c(cc3c(c2OC)OCO3)CCN1C` (some centres unmarked) [6a,b]: in assay [1] (HEK293, 50 μM), the “Percent of Cells in G1” value came to 12.1%, the “Percent of Cells in G2/M” value came out at 16.7% and the “Percent of Cells in S” value is given as 71.2%. Also, the “FACS profile / cell cycle effect” value in assay [1] is “accumulating in S-phase”.

With `COc1cc(COc2c(OC)ccc3c2C(=O)OC3[C@H]2c3c(cc4c(c3OC)OCO4)CCN2C)cc(OC)c1OC` (some centres unmarked) [Compound 5a,b], the “Percent of Cells in G1” value in assay [2] is 69.3%; in assay [1] (HEK293, 50 μM), 13.1%; in assay [4] it was 91.6%. Besides, the “Percent of Cells in G2/M” value in assay [2] stood at 5.4%; in assay [1] (HEK293, 50 μM), 6.3%; in assay [4] it was 1.5%. The “Percent of Cells in S” value in assay [2] is 25.3%; in assay [1] (HEK293, 50 μM), 80.7%; in assay [4] it was 6.8%. Moreover, the “FACS profile / cell cycle effect” value in assay [1] is “accumulate more cells in S-phase than 6a,b”. Further, the EC50 was 400 nM in assay [3] and below 1000 nM in assay [3] (text summary).

As for `COc1cc(COc2c(OC)ccc3c2C(=O)O[C@@H]3[C@H]2c3c(cc4c(c3OC)OCO4)CCN2C)cc(OC)c1OC` [Compound 5a], the EC50 in assay [3] (read-out: EC50) is 300 nM; in assay [3] (text summary, read-out: EC50), below 1000 nM.

For `COc1ccc2c(c1C#N)C(=O)O[C@@H]2[C@H]1c2c(cc3c(c2OC)OCO3)CCN1C` [Compound 10, 5-methoxy-1-(4-methoxy-6-methyl-5,6,7,8-tetrahydro-[1,3]dioxolo-[4,5-g]isoguinolin-5-yl)-3-oxo-1,3-dihydro-isobenzofuran-4-carbonitrile], in assay [1] (HEK293, 50 μM), the “Percent of Cells in G1” value is given as 2%, the “Percent of Cells in G2/M” value is 89.2% and the “Percent of Cells in S” value amounted to 8.8%. Further, the “accumulation of cells in G2/M” value in assay [1] is on record as around 90%.

As for `COc1ccc2c(c1)C(=O)O[C@@H]2[C@H]1c2c(cc3c(c2OC)OCO3)CCN1C` [Compound 12], in assay [1] (HEK293, 1 μM), the “Percent of Cells in G1” value was 3.8%, the “Percent of Cells in G2/M” value stood at 89.8% and the “Percent of Cells in S” value was found to be 6.4%. Moreover, the “accumulation of cells in G2/M” value in assay [1] was around 90%.

With `COc1ccc2c(c1S)C(=O)O[C@@H]2[C@H]1c2c(cc3c(c2OC)OCO3)CCN1C` [Compound 13], in assay [1] (HEK293, 5 μM), the “Percent of Cells in G1” value is 3.2%, the “Percent of Cells in G2/M” value amounted to 89.6% and the “Percent of Cells in S” value amounted to 7.2%. The “accumulation of cells in G2/M” value in assay [1] is around 90%.

In the case of `COC(=O)Nc1nc2ccc(C(=O)c3cccs3)cc2[nH]1` [Nocodazole, reference compound], in assay [5], the “effect on microtubule polymerization” value was “decreased microtubule polymerization”. For the same compound, in assay [3] (read-out: EC50), the concentration giving a half-maximal response (EC50) is below 20 nM.

With `CC(=O)O[C@H]1C(=O)[C@@]2(C)[C@H]([C@H](OC(=O)c3ccccc3)[C@]3(O)C[C@H](OC(=O)[C@H](O)[C@@H](NC(=O)c4ccccc4)c4ccccc4)C(C)=C1C3(C)C)[C@]1(OC(C)=O)CO[C@@H]1C[C@@H]2O` [Paclitaxel, reference compound], the “effect on microtubule polymerization” value in assay [5] is listed as “increased microtubule polymerization”. Further, the 50% effective concentration (EC50) in assay [3] (read-out: EC50) was below 100 nM.

With `COc1cc2c(c(OC)c1OC)-c1ccc(OC)c(=O)cc1[C@@H](NC(C)=O)CC2` [colchicine, reference compound], in assay [1] (HEK293, 10 μM), the “Percent of Cells in G1” value is 2.7%, the “Percent of Cells in G2/M” value came to 83.4% and the “Percent of Cells in S” value was 13.9%.

`COc1cc([C@@H]2c3cc4c(cc3[C@@H](O[C@@H]3O[C@@H]5CO[C@@H](C)O[C@H]5[C@H](O)[C@H]3O)[C@H]3COC(=O)[C@H]23)OCO4)cc(OC)c1O` [etoposide]: the “inhibition of topoisomerase I activity” value in assay [6] is reported as “neither etoposide nor noscapine inhibited”.
